Where a name gives a salt, the structure may show the parent alone. Active and inactive are the calls of the source.
What was measured:
[1] = molecular target: T1, Long-chain-fatty-acid--AMP ligase FadD28 (Mycobacterium tuberculosis, UniProt P9WQ59); assay: Fluorescence polarization aasay to screen for inhibitors that compete for the binding of FadD28 to a bisubstrate Measured in Biochemical System Using Plate Reader - 2147-01_Inhibitor_Dose_CherryPick_Activity.; type: functional, Mycobacterium tuberculosis H37Rv
T1 sequence (P9WQ59 whole entry): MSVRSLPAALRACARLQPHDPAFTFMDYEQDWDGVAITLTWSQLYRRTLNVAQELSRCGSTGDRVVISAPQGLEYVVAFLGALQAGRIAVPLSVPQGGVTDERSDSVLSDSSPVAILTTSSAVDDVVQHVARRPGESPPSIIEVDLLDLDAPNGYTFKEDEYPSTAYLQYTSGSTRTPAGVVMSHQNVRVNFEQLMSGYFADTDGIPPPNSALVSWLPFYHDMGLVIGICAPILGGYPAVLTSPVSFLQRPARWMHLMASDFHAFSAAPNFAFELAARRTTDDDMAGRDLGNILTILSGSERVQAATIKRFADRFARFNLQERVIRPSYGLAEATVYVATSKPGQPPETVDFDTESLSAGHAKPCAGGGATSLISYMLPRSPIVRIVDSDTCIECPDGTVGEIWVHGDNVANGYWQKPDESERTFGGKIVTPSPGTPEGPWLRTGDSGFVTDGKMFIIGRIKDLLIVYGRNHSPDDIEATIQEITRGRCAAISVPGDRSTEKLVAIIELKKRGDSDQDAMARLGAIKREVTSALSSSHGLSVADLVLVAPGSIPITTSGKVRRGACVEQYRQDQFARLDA

[2] = molecular target: Paired box protein Pax-8 (Homo sapiens, UniProt Q06710); assay: PAX8 transcriptional activity inhibition in RMG-I – RMG-I cells, luciferase, cherry-pick, dose response (AID 687027); type: functional, cell-based;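 also: luciferase reporter driven by Pax8 target thyroperoxidase promoter measured by SteadyGlo luminescence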
Paired box protein Pax-8, sequence (Q06710 whole entry): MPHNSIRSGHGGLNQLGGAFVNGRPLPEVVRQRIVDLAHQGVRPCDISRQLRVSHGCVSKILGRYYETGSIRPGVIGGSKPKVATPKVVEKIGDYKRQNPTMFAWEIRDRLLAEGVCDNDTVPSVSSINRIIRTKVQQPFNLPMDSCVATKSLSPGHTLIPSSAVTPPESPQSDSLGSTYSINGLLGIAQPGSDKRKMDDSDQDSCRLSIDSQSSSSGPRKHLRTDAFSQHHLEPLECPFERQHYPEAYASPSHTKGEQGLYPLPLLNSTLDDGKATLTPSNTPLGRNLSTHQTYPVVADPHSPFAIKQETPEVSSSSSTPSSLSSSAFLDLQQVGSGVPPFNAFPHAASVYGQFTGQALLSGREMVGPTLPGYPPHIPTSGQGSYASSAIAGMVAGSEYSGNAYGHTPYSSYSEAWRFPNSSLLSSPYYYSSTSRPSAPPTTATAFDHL

[3] = OVCAR-3 cell viability loss – plate reader, dry powder samples, PAX8 inhibitor project, dose response (AID 743044); type: functional, cell-based
[4] = IGROV1 cell killing – plate reader, dry powder samples, PAX8 inhibitor project, dose response (AID 743043); type: functional, cell-based; conditions: IGROV-1
[5] = molecular target: T2, Sentrin-specific protease 1 (Homo sapiens, UniProt Q9P0U3); assay: Dose response confirmation of small molecule inhibitors of the catalytic domain of the SUMO protease, SENP1 in a FRET assay.; type: functional; conditions: read-out: IC50_Mean
T2 sequence (Q9P0U3 whole entry): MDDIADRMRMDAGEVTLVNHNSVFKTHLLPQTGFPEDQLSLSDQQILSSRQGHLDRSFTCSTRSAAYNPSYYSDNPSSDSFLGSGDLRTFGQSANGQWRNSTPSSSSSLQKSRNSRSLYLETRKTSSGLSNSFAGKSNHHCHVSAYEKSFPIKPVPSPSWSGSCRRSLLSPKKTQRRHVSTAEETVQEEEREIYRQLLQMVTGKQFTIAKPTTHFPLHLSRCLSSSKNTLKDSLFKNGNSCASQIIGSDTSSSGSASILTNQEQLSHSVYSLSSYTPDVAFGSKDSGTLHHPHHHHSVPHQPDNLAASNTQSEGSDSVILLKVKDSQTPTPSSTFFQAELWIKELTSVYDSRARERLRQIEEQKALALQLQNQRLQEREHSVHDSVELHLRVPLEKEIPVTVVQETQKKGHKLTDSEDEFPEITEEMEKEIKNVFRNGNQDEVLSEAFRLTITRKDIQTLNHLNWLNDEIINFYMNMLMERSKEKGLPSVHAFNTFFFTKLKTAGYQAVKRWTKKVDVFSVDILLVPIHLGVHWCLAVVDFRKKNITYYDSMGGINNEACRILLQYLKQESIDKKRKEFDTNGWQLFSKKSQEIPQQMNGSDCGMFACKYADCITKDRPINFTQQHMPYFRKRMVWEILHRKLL

[6] = molecular target: T2, Sentrin-specific protease 1; assay: SENP1 catalytic domain blockers, concentration series – biochemical, kinetic FRET, dose response (AID 651697); type: functional; conditions: read-out: IC50_Mean
[7] = OVCAR8 cell viability loss – plate reader, dry powder samples, PAX8 project, dose response (AID 743197); type: functional, cell-based; conditions: OVCAR-8
[8] = viability of uninfected HEp-2 cells – cell-based, HTS, cytotoxicity control for RSV inhibitor project, dose response (AID 2410); type: functional; conditions: human respiratory syncytial virus
[9] = Luminescence Cell-Based Dose Retest to Confirm Inhibitors of Cancer Stem Cells. [Related pubchem assays (depositor defined):AID2717, AID2721]; type: functional; conditions: Homo sapiens
[10] = molecular target: T3, Polyadenylate-binding protein 1 (Homo sapiens, UniProt P11940); assay: MLLE domain peptide-binding blockers, IC50 – biochemical, fluorescence polarization, FITC-PAM2 peptide, dose response (AID 602259); type: functional; conditions: read-out: IC50_Mean
T3 sequence (P11940 whole entry, the tested form may be a part): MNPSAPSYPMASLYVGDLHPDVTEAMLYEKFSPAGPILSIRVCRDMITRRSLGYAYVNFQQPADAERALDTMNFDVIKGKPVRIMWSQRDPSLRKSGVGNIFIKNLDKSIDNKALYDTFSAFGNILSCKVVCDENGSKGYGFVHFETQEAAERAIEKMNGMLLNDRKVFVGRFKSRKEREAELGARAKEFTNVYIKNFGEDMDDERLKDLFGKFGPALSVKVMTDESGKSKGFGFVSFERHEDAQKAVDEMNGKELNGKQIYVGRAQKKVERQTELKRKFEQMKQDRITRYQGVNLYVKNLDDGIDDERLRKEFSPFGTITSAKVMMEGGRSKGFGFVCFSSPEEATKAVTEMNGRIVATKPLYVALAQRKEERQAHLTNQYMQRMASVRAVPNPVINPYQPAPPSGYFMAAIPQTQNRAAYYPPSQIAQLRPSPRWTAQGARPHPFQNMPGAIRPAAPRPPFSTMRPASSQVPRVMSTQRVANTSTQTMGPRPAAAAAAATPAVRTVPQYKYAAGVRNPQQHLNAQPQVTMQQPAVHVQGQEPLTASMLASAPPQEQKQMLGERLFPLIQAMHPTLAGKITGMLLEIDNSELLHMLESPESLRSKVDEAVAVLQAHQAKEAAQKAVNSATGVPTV

[11] = molecular target: T3, Polyadenylate-binding protein 1; assay: MLLE binding blockers, Cy5 peptide tracer – biochemical, fluorescence polarization, Cy5-PAM2 peptide, secondary, miRNA deadenylation inhibitor project, dose response (AID 602260); type: functional; conditions: read-out: IC50_Mean
[12] = molecular target: T4, Replicative DNA helicase DnaB (Mycobacterium tuberculosis, UniProt P9WMR3); assay: DnaB intein splicing inhibitors, dose response, biochemical, cell-free fluorescence (AID 449749); type: functional
T4 sequence (P9WMR3 whole entry): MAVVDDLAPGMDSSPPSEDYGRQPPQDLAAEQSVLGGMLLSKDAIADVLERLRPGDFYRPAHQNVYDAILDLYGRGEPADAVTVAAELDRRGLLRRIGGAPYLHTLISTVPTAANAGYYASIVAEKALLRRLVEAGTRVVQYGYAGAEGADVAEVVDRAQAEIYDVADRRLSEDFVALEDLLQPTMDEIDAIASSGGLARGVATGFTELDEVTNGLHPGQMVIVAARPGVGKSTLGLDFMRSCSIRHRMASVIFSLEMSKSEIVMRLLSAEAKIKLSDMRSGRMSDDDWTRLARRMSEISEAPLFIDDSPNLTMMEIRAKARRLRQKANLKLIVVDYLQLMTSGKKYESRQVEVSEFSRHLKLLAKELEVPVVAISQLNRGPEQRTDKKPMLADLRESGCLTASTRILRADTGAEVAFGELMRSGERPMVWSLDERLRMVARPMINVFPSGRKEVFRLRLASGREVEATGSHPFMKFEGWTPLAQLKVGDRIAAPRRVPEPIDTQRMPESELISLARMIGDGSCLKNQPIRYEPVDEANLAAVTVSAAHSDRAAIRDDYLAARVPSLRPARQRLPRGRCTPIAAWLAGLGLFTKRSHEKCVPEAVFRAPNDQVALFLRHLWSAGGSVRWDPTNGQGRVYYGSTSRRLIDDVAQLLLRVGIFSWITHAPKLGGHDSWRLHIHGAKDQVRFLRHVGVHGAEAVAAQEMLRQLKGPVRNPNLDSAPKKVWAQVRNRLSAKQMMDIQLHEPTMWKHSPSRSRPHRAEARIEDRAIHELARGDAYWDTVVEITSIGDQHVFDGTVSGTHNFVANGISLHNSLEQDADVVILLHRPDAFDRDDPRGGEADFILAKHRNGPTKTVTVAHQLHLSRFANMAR

[13] = molecular target: T5, Leucine aminopeptidase (Plasmodium falciparum 3D7, UniProt Q8IL11); assay: P. falciparum M17LAP inhibitors, primary screen, biochemical, fluorogenic H-Leu-NHMec substrate, 1536-well (AID 1619); type: functional
T5 sequence (Q8IL11 whole entry): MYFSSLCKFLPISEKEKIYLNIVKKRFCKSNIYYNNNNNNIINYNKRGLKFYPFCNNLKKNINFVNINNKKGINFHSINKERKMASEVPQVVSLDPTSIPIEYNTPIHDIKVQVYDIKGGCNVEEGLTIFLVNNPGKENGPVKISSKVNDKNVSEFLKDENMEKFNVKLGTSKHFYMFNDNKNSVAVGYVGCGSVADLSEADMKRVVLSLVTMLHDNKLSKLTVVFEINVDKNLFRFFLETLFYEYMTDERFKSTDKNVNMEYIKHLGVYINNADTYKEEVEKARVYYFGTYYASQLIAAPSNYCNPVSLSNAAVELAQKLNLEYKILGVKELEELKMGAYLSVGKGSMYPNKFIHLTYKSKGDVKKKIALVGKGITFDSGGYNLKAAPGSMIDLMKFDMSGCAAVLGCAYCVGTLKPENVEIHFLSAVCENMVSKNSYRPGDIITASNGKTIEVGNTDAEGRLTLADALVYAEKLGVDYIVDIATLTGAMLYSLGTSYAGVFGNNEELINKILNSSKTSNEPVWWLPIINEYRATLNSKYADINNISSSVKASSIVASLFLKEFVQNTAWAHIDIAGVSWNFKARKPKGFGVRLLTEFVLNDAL

[14] = molecular target: Genome polyprotein (dengue virus type 2, UniProt P29990); assay: flavivirus cap methylation enzyme inhibition – biochemical, confirmation dose response, primary screen (AID 588689); type: functional
Genome polyprotein, sequence (P29990 2492-3391 limits assumed): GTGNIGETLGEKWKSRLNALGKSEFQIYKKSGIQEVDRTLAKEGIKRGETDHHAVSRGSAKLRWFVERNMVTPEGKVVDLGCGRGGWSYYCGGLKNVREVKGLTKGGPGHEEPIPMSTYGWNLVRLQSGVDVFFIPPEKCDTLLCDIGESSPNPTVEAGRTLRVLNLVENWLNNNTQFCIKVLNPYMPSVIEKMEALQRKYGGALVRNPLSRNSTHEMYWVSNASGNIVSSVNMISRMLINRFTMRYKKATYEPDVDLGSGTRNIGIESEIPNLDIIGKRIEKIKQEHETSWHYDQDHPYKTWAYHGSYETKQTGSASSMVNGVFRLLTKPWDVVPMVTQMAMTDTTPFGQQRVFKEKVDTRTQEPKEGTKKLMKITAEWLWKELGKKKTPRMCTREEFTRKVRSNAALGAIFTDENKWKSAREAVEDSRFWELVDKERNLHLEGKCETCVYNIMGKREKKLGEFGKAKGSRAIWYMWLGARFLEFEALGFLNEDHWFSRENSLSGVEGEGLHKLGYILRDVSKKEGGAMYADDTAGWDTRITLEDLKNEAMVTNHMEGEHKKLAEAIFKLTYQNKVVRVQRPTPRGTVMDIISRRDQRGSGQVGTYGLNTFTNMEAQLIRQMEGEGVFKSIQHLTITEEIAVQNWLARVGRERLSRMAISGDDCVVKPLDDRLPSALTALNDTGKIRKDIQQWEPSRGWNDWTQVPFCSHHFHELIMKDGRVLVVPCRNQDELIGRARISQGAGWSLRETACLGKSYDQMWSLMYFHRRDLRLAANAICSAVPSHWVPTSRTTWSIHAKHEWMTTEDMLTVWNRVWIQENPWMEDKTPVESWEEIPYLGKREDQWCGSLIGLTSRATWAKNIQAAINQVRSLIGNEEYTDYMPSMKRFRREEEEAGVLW

[15] = molecular target: T6, Protein RecA (Mycobacterium tuberculosis, UniProt P9WHJ3); assay: Fluorescence Cell-Free Homogeneous Dose Retest to Identify Inhibitors of RecA-Intein Splicing Activity. [Related pubchem assays (depositor defined):AID2097, AID2223, AID489010, AID492950]; type: functional
T6 sequence (P9WHJ3 whole entry): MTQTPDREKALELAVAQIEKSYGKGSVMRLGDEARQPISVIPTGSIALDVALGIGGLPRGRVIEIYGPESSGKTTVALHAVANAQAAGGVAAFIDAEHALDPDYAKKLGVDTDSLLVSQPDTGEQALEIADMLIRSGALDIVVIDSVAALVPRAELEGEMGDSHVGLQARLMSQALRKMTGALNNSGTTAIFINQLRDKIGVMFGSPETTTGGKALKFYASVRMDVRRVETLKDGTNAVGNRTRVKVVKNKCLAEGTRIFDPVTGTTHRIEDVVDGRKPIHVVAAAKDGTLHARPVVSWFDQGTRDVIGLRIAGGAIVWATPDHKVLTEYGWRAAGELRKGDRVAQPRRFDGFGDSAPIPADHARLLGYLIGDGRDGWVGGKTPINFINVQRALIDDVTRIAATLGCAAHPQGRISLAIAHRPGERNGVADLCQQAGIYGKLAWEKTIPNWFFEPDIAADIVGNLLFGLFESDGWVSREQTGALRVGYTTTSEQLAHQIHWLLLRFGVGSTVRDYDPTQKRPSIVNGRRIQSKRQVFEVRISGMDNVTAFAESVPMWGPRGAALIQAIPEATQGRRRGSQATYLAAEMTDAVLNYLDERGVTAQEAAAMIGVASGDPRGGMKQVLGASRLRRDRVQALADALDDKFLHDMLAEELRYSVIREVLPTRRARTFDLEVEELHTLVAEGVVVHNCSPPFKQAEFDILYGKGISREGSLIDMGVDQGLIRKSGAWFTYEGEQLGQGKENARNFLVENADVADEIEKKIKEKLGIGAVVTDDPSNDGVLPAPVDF

With `CCc1ccccc1NC(=O)CN(C)C(=O)CSc1nnc(Nc2cccc(C)c2C)s1` the AC50 [1] was 4.79 µM (active).
For `O=C(Nc1cccc(F)c1)N1CCCCN2[C@@H](CO)[C@@H](c3ccc(-c4ccccc4F)cc3)[C@@H]2C1`, the AC50 [2] was 21.1 µM (active), the AC50 [3] was 37.6 µM (active) and the AC50 [4] was 26.9 µM (active).
In the case of `COc1cc(O)c(C=Nc2ccccc2NS(=O)(=O)c2ccc(C)cc2)c(OC)c1`, the IC50 [5] is reported as 15.2 µM (active) and the IC50 [6] is reported as 16.1 µM (active).
For `C[C@@H]1CN([C@H](C)CO)S(=O)(=O)c2ccc(C#Cc3cccc(F)c3)cc2O[C@@H]1CN(C)C(=O)NC1CCCCC1`, the AC50 [2] was 8.38 µM (active), the AC50 [3] was 42.1 µM (active) and the AC50 [7] was 33.6 µM (active).
With `CN(C)c1ccc(/C=N/NC(=O)/C(O)=C\C2=NC3(CCCC3)Cc3ccccc32)cc1` the IC50 [5] was 13.2 µM (active), the CC50 [8] was 25.8 µM (active) and the AC50 [9] was 3.54 µM (active). For the same compound, the IC50 [6] was 10.1 µM (active).
With `CN1Cc2c(N)cccc2C(c2ccccc2)C1` (configuration not stated) [NOMIFENSINE MALEATE] the IC50 [5] was 8.71 µM (active), the IC50 [6] was 8.36 µM (active) and the IC50 [10] was > 66 µM (inactive). The IC50 [11] was > 66 µM (inactive).
For `Cc1ccc(-c2ccc(/C=N/NC3=NC(=O)C(CC(=O)O)S3)o2)c([N+](=O)[O-])c1` (configuration not stated), the AC50 [12] was 26.5 µM (active), the IC50 [13] was 101 µM (active) and the IC50 [14] was 88.6 µM (active). The EC50 [15] was 10.5 µM (active).
With `CCOc1cc(/C=C2\S/C(=N\c3ccccc3)N(c3ccccc3)C2=O)ccc1OCC(=O)O` the IC50 [13] was 31.3 µM (active).

From ChEMBL document CHEMBL1201862, “PubChem BioAssay data set” (2004)
